Source: patent publication US20060069152A1, “Crystalline mycophenolate sodium” (priority 2004, published 2006)
Like-named read-outs stand apart in the source and are kept apart here.

What was measured:
[1] = Hygroscopicity: crystal forms exposed to different levels of humidity for one week, then analysed by TGA and XRD; format: physicochemical; conditions: for LOD(%): one week, TGA
Method: The hygroscopicity of monosodium mycophenolate crystal forms M1, M2, M3 and disodium mycophenolate crystal forms D1 and D1±D2 were also investigated. Form M1, M2, M3, D1 and D1±D2 were exposed to different level of humidity for one week and after equilibrium they were analysed by TGA and XRD for water content and crystal structure. Table 5 summarizes the results:
(§1) ARL X-ray powder diffractometer model X′TRA-030, Peltier detector, round standard aluminum sample holder with round zero background quartz plate was used. Scanning parameters: Range: 2-40 deg. 2 θ, continuous Scan, Rate: 3 deg./min. The accuracy of peak positions is defined as ±/−0.2 degrees due to experimental differences like instrumentations, sample preparations etc.
• TGA/SDTA 851^e, Mettler Toledo, Sample weight 7-15 mg. • Heating rate: 10° C./min., In N2 stream: flow rate=50 ml/min • Scan range: 30-250° C. Microscope
200 mg of each of the following samples: crystal Form M2, crystal Form M3 and crystal Form D1 were put at room temperature into a hygroscopicity chamber containing 100% relative humidity for one week. After one week they were measured again by XRD to determine their crystal forms.

[2] = Crystal form transformation by heating in an oven at atmospheric pressure, XRD before and after; format: physicochemical; conditions: for Crystal form after heating (XRD): 30 min., atmospheric pressure
Method: Representatives of all monosodium and disodium mycophenolate crystal forms, M1, M2, M1±M3, D1 and D1±D2 were heated in an oven at atmospheric pressure at 130° C. and 170° C. for 30 minutes. The samples were analyzed by XRD before and after heating.
as §1
200 mg of a mixture of Forms M1±M3 as identified by XRD, was put into an oven in a glass weighing bottle at 170° C. for 0.5 h. Then it was put into a desiccator and allowed to cool to room temperature. […] Transformation of M2 to M1, M3 to M1 and D1 to D2 by water vapors absorption

COc1c(C)c2c(c([O-])c1C/C=C(\C)CCC(=O)[O-])C(=O)OC2.[Na+].[Na+] [D1 + D2, disodium mycophenolate]
LOD(%) ([1]; 20% RH): 10.2% | LOD(%) ([1]; 40% RH): 10.3% | LOD(%) ([1]; 80% RH): 16.9% | LOD(%) ([1]; 100% RH): 42.1%

COc1c(C)c2c(c([O-])c1C/C=C(\C)CCC(=O)[O-])C(=O)OC2.[Na+].[Na+] [Form D1, disodium mycophenolate]
LOD(%) ([1]; 40% RH, listed as D1): 2.17% | LOD(%) ([1]; 60% RH): 11.64% | LOD(%) ([1]; 80% RH, listed as D1): 17.20% | LOD(%) ([1]; 100% RH, listed as D1): 31.87% | relative stability of the form at high temperature [2]: the most stable forms at high temperature

COc1c(C)c2c(c([O-])c1C/C=C(\C)CCC(=O)[O-])C(=O)OC2.[Na+].[Na+] [Form D2, disodium mycophenolate]
relative stability of the form at high relative humidity ([1]; room temperature, high relative humidity): the most stable form at room temperature, at high relative humidity

COc1c(C)c2c(c(O)c1C/C=C(\C)CCC(=O)O)C(=O)OC2 [Form M1, mycophenolate sodium]
relative stability of the form at high relative humidity [1]: the most stable form at room temperature, at high relative humidity

COc1c(C)c2c(c(O)c1C/C=C(\C)CCC(=O)O)C(=O)OC2 [Form M2, mycophenolate sodium]
relative stability of the form at high temperature ([2]; heating at 130° C. and 170° C.): the most stable forms at high temperature

COc1c(C)c2c(c(O)c1C/C=C(\C)CCC(=O)[O-])C(=O)OC2.[Na+] [M1 + M3, mycophenolate sodium]
Crystal form after heating (XRD) ([2]; 130° C.): M3 > Ml | Crystal form after heating (XRD) ([2]; 170° C.): Form M2

COc1c(C)c2c(c([O-])c1C/C=C(\C)CCC(=O)[O-])C(=O)OC2.[Na+].[Na+] [disodium mycophenolate]
equilibrium water content ([1]; after humidity exposure): about 17%
